Source: US8143374B2, “Polypeptide derivatives of parathyroid hormone (PTH)” (The General Hospital Corporation, priority 2006, dated 2012)
Like-named read-outs stand apart in the source and are kept apart here. Where a SMILES comes first, the peptide text is derived from it. Where no end group is shown, it is not given here. [ ]: non-standard residue; d: D form. Apa = (S)-2-amino-4[(2-amino)pyrimidinyl]methylalanine; Phe(4-guanidino) = N=C(N)Nc1ccc(C[C@H](N)C(=O)O)cc1; Cha = N[C@@H](CC1CCCCC1)C(=O)O; Orn = NCCC[C@H](N)C(=O)O

How the values were obtained:
[1] = Circular dichroism spectroscopy, helical residues per peptide chain; type: physicochemical; details: calculated from [θ]222
Method in brief: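 Helical residue count per peptide chain derived from 222 nm mean residue ellipticity via −[θ]222×30/28,000. Spectra taken at 20 °C as four-scan averages, with concentrations verified by absorbance at 280 nm (single tryptophan, 5700 M^−1).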

[2] = biological target: T1, wild-type human PTHR (Homo sapiens, UniProt Q03431); test: Competition binding in intact HKRK-B7 cells with 125I-PTH(1-34) tracer; details: for reduction (alteration) of apparent binding affinity for the intact PTHR relative to parent peptide: versus the respective parent peptide; for IC50: intact HKRK-B7 cells, read-out: PTHR-WT (HKRK-B7 cells) IC50
T1 construct: expressed in transfected cells
T1 sequence (Q03431 27-593): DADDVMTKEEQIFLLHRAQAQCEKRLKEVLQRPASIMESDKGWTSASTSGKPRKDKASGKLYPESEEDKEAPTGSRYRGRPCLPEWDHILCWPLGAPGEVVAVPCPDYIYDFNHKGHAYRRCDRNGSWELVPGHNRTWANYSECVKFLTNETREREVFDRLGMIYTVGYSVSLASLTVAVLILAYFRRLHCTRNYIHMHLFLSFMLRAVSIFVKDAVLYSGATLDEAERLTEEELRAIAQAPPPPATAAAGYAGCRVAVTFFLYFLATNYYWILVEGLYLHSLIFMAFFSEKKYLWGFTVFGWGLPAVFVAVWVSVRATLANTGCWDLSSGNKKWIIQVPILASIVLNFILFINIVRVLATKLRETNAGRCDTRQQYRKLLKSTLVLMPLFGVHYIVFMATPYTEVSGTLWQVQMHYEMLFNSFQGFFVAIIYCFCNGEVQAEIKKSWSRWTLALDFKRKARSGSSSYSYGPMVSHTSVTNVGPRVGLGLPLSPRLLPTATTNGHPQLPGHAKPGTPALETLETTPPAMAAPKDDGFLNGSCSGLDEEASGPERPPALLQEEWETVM
Experimental: Cell Culture—Cells were cultured at 37° C. in a humidified atmosphere containing 5% CO2 in Dulbecco's modified Eagle's medium (DMEM), supplemented with 10% fetal bovine serum (HyClone, Logan Utah), 100 units/ml penicillin G, and 100 ug/ml streptomycin penicillin G/streptomycin (Invitrogen Corp. Carlsbad, Calif.). For binding and cAMP studies performed with the intact PTHR, the HKRK-B7 and ROS 17/2.8 cell lines were used. HKRK-B7 cells are derived from the porcine kidney cell line LLC-PK1 and express, via stable DNA transfection, the wild-type human PTHR at an approximate surface density of 950,000 PTH-binding sites per cell. ROS 17/2.8 cells are rat osteosarcoma cells and express the endogenous PTHR at an approximate surface density of 80,000 PTH-binding sites per cell. The cells were plated and assayed in 24-well plates.
Receptor binding—Binding to the wild-type human PTHR in intact HKRK-B7 cells and ROS 17/2.8 cells was assessed using ^125I-PTH(1-34) as a tracer radioligand, as described (Shimizu, M., (2001) Endocrinology 142:3068-3074). In brief, the cells in 24-well plates (about 500,000 cells per well) were incubated in binding buffer containing radioligand (about 100,000 cpm per well) with or without unlabeled peptide ligand (3×10^−9 to 1×10^−5 M) for four hours at 15° C. The binding mixture was then removed by aspiration, the cells were rinsed three times with binding buffer, lysed in 1 M NaOH, and the entire lysate was counted for gamma-irradiation in a gamma counter. Binding to PTHR-delNt in COS-7 cell membranes was assessed in 96-well, vacuum filtration plates (Multiscreen-Durapore HV, […] membranes, Millipore Corp., Millford, Mass.) using ^125I-[Aib^1,3,M]PTH(1-15)NH2 as a tracer radioligand, as described (Dean, T., (2006) Mol Endocrinol 20:931-942). In brief, cell membranes (20 μg/well) were incubated in membrane binding buffer containing radioligand (30,000 cpm/well) with or without unlabeled peptide ligand (3×10^−9 to 1×10^−5 M) for 90 minutes at 21° C. The plates were then subject to rapid vacuum filtration, the filters were washed once with buffer, detached from the plate and counted for gamma-irradiation in a gamma counter. Non-specific binding was defined as the binding observed in the presence of 1×10^−6 M PTH(1-31)NH2 for HKRK-B7 and ROS 17/2.8 cells, and 1×10^−6 M [Aib^1,3,M]PTH(1-15)NH2 for PTHR-delNt. Specifically bound radioactivity was calculated as a percentage of the radioactivity specifically bound in the absence of competing ligand.
Data and statistical calculations—Data were processed for curve fitting and derivation of IC50 and EC50 values using least-squares, nonlinear regression analysis and the four parameter logistic equation: […], where y, ymin and ymax are the observed, minimum and maximum response values, respectively; x is ligand concentration, and n is the slope factor. In cases where incomplete inhibition of binding occurred: i.e. with certain PTH(1-31) analogs binding to PTHR-delNt, the curve fits and IC50 values were derived by extrapolating the data to the maximum inhibition attained by [Aib^1,3,M]PTH(1-15)NH2. Paired data sets were statistically compared using a two-tailed Student's t-test, assuming unequal variances for the two sets.

[3] = [Ala1,Arg19]hPTH(1-31)NH2 analogs
[4] = hPTH(1-31)NH2 analogs, 125I-[Nle8,21,Tyr34]ratPTH(1-34)NH2 tracer
[5] = [Ala1,Arg19]hPTH(1-31)NH2 analogs, 125I-[Nle8,21,Tyr34]rPTH(1-34)NH2 tracer

Compound | CD helical residues [1, 3] | reduction (alteration) of apparent binding affinity for the intact PTHR relative to parent peptide ([2]; HKRK-B7 cells) | IC50 [2, 4] | also measured
CC[C@H](C)[C@H](NC(=O)[C@H](CCC(=O)O)NC(=O)[C@H](CO)NC(=O)[C@@H](NC(=O)[C@H](C)N)C(C)C)C(=O)N[C@@H](CCC(N)=O)C(=O)N[C@@H](CC(C)C)C(=O)N[C@@H](CCSC)C(=O)N[C@@H](Cc1c[nH]cn1)C(=O)N[C@@H](CC(N)=O)C(=O)N[C@@H](CC(C)C)C(=O)NCC(=O)N[C@@H](CCCCN)C(=O)N[C@@H](Cc1c[nH]cn1)C(=O)N[C@@H](CC(C)C)C(=O)N[C@@H](CC(N)=O)C(=O)N[C@@H](CO)C(=O)N[C@@H](CCSC)C(=O)N[C@@H](CCCNC(=N)N)C(=O)N[C@@H](CC1CCCCC1)C(=O)N[C@H](C(=O)N[C@@H](CCC(=O)O)C(=O)N[C@@H](Cc1c[nH]c2ccccc12)C(=O)N[C@@H](CC(C)C)C(=O)N[C@@H](CCCNC(=N)N)C(=O)N[C@@H](CCCCN)C(=O)N[C@@H](CCCCN)C(=O)N[C@@H](CC(C)C)C(=O)N[C@@H](CCC(N)=O)C(=O)N[C@@H](CC(=O)O)C(=O)N[C@H](C(N)=O)C(C)C)C(C)C [Arg^20→Cha, AlaValSerGluIleGlnLeuMetHisAsnLeuGlyLysHisLeuAsnSerMetArgChaValGluTrpLeuArgLysLysLeuGlnAspVal] (H-AVSEIQLMHNLGKHLNSMR[Cha]VEWLRKKLQDV-NH2; N-terminus assumed) | 16 | 120 fold |  | 
CC[C@H](C)[C@H](NC(=O)[C@H](CCC(=O)O)NC(=O)[C@H](CO)NC(=O)[C@@H](NC(=O)[C@@H](N)CO)C(C)C)C(=O)N[C@@H](CCC(N)=O)C(=O)N[C@@H](CC(C)C)C(=O)N[C@@H](CCSC)C(=O)N[C@@H](Cc1c[nH]cn1)C(=O)N[C@@H](CC(N)=O)C(=O)N[C@@H](CC(C)C)C(=O)NCC(=O)N[C@@H](CCCCN)C(=O)N[C@@H](Cc1c[nH]cn1)C(=O)N[C@@H](CC(C)C)C(=O)N[C@@H](CC(N)=O)C(=O)N[C@@H](CO)C(=O)N[C@@H](CCSC)C(=O)N[C@@H](CCC(=O)O)C(=O)N[C@@H](Cc1ccc(NC(=N)N)cc1)C(=O)N[C@H](C(=O)N[C@@H](CCC(=O)O)C(=O)N[C@@H](Cc1c[nH]c2ccccc12)C(=O)N[C@@H](CC(C)C)C(=O)N[C@@H](CCCNC(=N)N)C(=O)N[C@@H](CCCCN)C(=O)N[C@@H](CCCCN)C(=O)N[C@@H](CC(C)C)C(=O)N[C@@H](CCC(N)=O)C(=O)N[C@@H](CC(=O)O)C(=O)N[C@H](C(N)=O)C(C)C)C(C)C [Arg^20→Gph] (H-SVSEIQLMHNLGKHLNSME[Phe(4-guanidino)]VEWLRKKLQDV-NH2; N-terminus assumed) |  |  | > 10000 nM | detectable binding to the intact PTHR (in words) ([2]; HKRK-B7 cells): complete loss of detectable binding affinity
CC[C@H](C)[C@H](NC(=O)[C@H](CCC(=O)O)NC(=O)[C@H](CO)NC(=O)[C@@H](NC(=O)[C@@H](N)CO)C(C)C)C(=O)N[C@@H](CCC(N)=O)C(=O)N[C@@H](CC(C)C)C(=O)N[C@@H](CCSC)C(=O)N[C@@H](Cc1c[nH]cn1)C(=O)N[C@@H](CC(N)=O)C(=O)N[C@@H](CC(C)C)C(=O)NCC(=O)N[C@@H](CCCCN)C(=O)N[C@@H](Cc1c[nH]cn1)C(=O)N[C@@H](CC(C)C)C(=O)N[C@@H](CC(N)=O)C(=O)N[C@@H](CO)C(=O)N[C@@H](CCSC)C(=O)N[C@@H](CCC(=O)O)C(=O)N[C@@H](CCCN)C(=O)N[C@H](C(=O)N[C@@H](CCC(=O)O)C(=O)N[C@@H](Cc1c[nH]c2ccccc12)C(=O)N[C@@H](CC(C)C)C(=O)N[C@@H](CCCNC(=N)N)C(=O)N[C@@H](CCCCN)C(=O)N[C@@H](CCCCN)C(=O)N[C@@H](CC(C)C)C(=O)N[C@@H](CCC(N)=O)C(=O)N[C@@H](CC(=O)O)C(=O)N[C@H](C(N)=O)C(C)C)C(C)C [Arg^20→Orn] (H-SVSEIQLMHNLGKHLNSME[Orn]VEWLRKKLQDV-NH2; N-terminus assumed) |  |  | > 10000 nM | CD helical residues ([1]; hPTH(1-31)NH2 analogs): 6
CC[C@H](C)[C@H](NC(=O)[C@H](CCC(=O)O)NC(=O)[C@H](CO)NC(=O)[C@@H](NC(=O)[C@H](C)N)C(C)C)C(=O)N[C@@H](CCC(N)=O)C(=O)N[C@@H](CC(C)C)C(=O)N[C@@H](CCSC)C(=O)N[C@@H](Cc1c[nH]cn1)C(=O)N[C@@H](CC(N)=O)C(=O)N[C@@H](CC(C)C)C(=O)NCC(=O)N[C@@H](CCCCN)C(=O)N[C@@H](Cc1c[nH]cn1)C(=O)N[C@@H](CC(C)C)C(=O)N[C@@H](CC(N)=O)C(=O)N[C@@H](CO)C(=O)N[C@@H](CCSC)C(=O)N[C@@H](CCCNC(=N)N)C(=O)N[C@@H](CCCNC(=N)N)C(=O)N[C@H](C(=O)N[C@@H](CCC(=O)O)C(=O)N[C@@H](Cc1c[nH]c2ccccc12)C(=O)N[C@@H](CC(C)C)C(=O)N[C@@H](CCCNC(=N)N)C(=O)N[C@@H](CCCCN)C(=O)N[C@@H](CCCCN)C(=O)N[C@@H](CC(C)C)C(=O)N[C@@H](CCC(N)=O)C(=O)N[C@@H](CC1CCCCC1)C(=O)N[C@H](C(N)=O)C(C)C)C(C)C [Asp^30→Cha] (H-AVSEIQLMHNLGKHLNSMRRVEWLRKKLQ[Cha]V-NH2; N-terminus assumed) | 8 |  |  | IC50 [2, 5]: 54 ± 7 nM
AVSEIQLMHNLGKHLNSMERVEWLRKKLQDV-NH2 [Arg^19→Glu] | 9 | two- to five-fold reductions |  | IC50 [2, 5]: 125 ± 29 nM
AVSEIQLMHNLGKHLNSMRREEWLRKKLQDV-NH2 [Val^21→Glu] | 7 | 12 fold |  | 
AVSEIQLMHNLGKHLNSMRRVEWLEKKLQDV-NH2 [Arg^25→Glu] | 5 | two- to five-fold reductions |  | 
Arg^20→Apa: hPTH(1-31)NH2 analog with Arg^20 replaced by (S)-2-amino-4[(2-amino)pyrimidinyl]methylalanine (Apa) (SVSEIQLMHNLGKHLNSME[Apa]VEWLRKKLQDV-NH2) |  |  | > 10000 nM | detectable binding to the intact PTHR (in words) ([2]; HKRK-B7 cells): complete loss of detectable binding affinity

Further lines, with some results ahead:

CD helical residues [1, 3] | reduction (alteration) of apparent binding affinity for the intact PTHR relative to parent peptide ([2]; HKRK-B7 cells) | IC50 [2, 4] | Compound | also measured
6 |  |  | AVSEIQLMHNLGKHLNSMRRVEWERKKLQDV-NH2 [Leu^24→Glu] | detectable binding to the intact PTHR (in words) ([2]; HKRK-B7 cells): abolished detectable binding; IC50 [2, 5]: > 10000 nM
6 | two- to five-fold reductions |  | AVSEIQLMHNLGKHLNSMRRVEWLREKLQDV-NH2 [Lys^26→Glu] | 
5 | two- to five-fold reductions |  | AVSEIQLMHNLGKHLNSMRRVEWLRKELQDV-NH2 [Lys^27→Glu] | 
 |  | 49 ± 9 nM | SVSEIQLMHNLGKHLNSMARVAWLRKKLQDV-NH2 [Glu^19,22→Ala,Ala] | CD helical residues ([1]; hPTH(1-31)NH2 analogs): 9; enhancement in apparent PTHR-binding affinity relative to parent peptide ([2]; HKRK-B7 cells, versus PTH(1-31)NH2): did not lead to further improvements
